Key:
[1] = test system: ONS-76 (Other Solid Carcinomas); test: Bliss excess, mean over the matrix (fraction); higher = more synergy
Outline: (§1)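 Bliss excess equals the observed combination effect minus the expected value EA + EB − EA·EB, where EA and EB are the effects of each agent alone. Combination Emax is the second-highest inhibition within the matrix. Inhibition was scaled from CellTiter-Glo 2.0 luminescence, with 0 set by vehicle wells and 1 by blank wells, after 72 hours of two-drug dosing of cells plated in 1536-well plates.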

[2] = test system: COLO-320-HSR (Colorectal Carcinoma); test: as above
Outline: as §1

[3] = test system: FU97 (Gastric Carcinoma); test: as above
Outline: as §1

[4] = test system: BICR22 (Oral Cavity Carcinoma); test: as above
Outline: as §1

[5] = test system: NCI-H1581 (Non-Small Cell Lung Carcinoma); test: as above
Outline: as §1

[6] = test system: NCI-H64 (Small Cell Lung Carcinoma); test: as above
Outline: as §1

[7] = test system: KARPAS-422 (B-Cell Non-Hodgkin's Lymphoma); test: as above
Outline: as §1

[8] = test system: U-2-OS (Osteosarcoma); test: as above
Outline: as §1

[9] = test system: PANC-10-05 (Pancreatic Carcinoma); test: as above
Outline: as §1

[10] = test system: NCI-H1666 (Lung Adenocarcinoma); test: as above
Outline: as §1

[11] = test system: NCI-H2066 (Squamous Cell Lung Carcinoma); test: as above
Outline: as §1

[12] = test system: CAPAN-2 (Pancreatic Carcinoma); test: as above
Outline: as §1

[13] = test system: CCK-81 (Colorectal Carcinoma); test: as above
Outline: as §1

[14] = test system: TT (Thyroid Gland Carcinoma); test: as above
Outline: as §1

[15] = test system: VCaP (Prostate Carcinoma); test: as above
Outline: as §1

[16] = test system: NY (Osteosarcoma); test: as above
Outline: as §1

[17] = test system: IGR-37 (Melanoma); test: as above
Outline: as §1

[18] = test system: ECC10 (Gastric Carcinoma); test: as above
Outline: as §1

[19] = test system: ONS-76 (Other Solid Carcinomas); test: combination Emax (second highest fraction inhibited in the dose matrix, 72 h); higher = more inhibition; extreme values may be limits of the assay
Outline: as §1

[20] = test system: COLO-320-HSR (Colorectal Carcinoma); test: as above
Outline: as §1

[21] = test system: BICR22 (Oral Cavity Carcinoma); test: as above
Outline: as §1

[22] = test system: NCI-H1581 (Non-Small Cell Lung Carcinoma); test: as above
Outline: as §1

[23] = test system: NCI-H64 (Small Cell Lung Carcinoma); test: as above
Outline: as §1

[24] = test system: KARPAS-422 (B-Cell Non-Hodgkin's Lymphoma); test: as above
Outline: as §1

[25] = test system: U-2-OS (Osteosarcoma); test: as above
Outline: as §1

[26] = test system: PANC-10-05 (Pancreatic Carcinoma); test: as above
Outline: as §1

[27] = test system: NCI-H2066 (Squamous Cell Lung Carcinoma); test: as above
Outline: as §1

[28] = test system: CAPAN-2 (Pancreatic Carcinoma); test: as above
Outline: as §1

[29] = test system: CCK-81 (Colorectal Carcinoma); test: as above
Outline: as §1

[30] = test system: TT (Thyroid Gland Carcinoma); test: as above
Outline: as §1

[31] = test system: VCaP (Prostate Carcinoma); test: as above
Outline: as §1

[32] = test system: NY (Osteosarcoma); test: as above
Outline: as §1

[33] = test system: IGR-37 (Melanoma); test: as above
Outline: as §1

[34] = test system: ECC10 (Gastric Carcinoma); test: as above
Outline: as §1

[35] = test system: U-698-M; test: Bliss excess, mean over the matrix (fraction); higher = more synergy; details: U-[…], B-Cell Non-Hodgkin's Lymphoma
Outline: as §1

[36] = test system: U-698-M; test: combination Emax (second highest fraction inhibited in the dose matrix, 72 h); higher = more inhibition; details: B-Cell Non-Hodgkin's Lymphoma
Outline: as §1

[37] = first compound max 1 µM, partner max 10 µM, 7x7
[38] = first compound max 3 µM, partner max 3 µM
[39] = first compound max 10 µM, partner max 1 µM, 7x7
[40] = first compound max 1 µM, partner max 3 µM, 7x7
[41] = first compound max 1 µM, partner max 1 µM
[42] = first compound max 1 µM, partner max 1 µM, 7x7
[43] = first compound max 10 µM, partner max 10 µM, 7x7
[44] = first compound max 10 µM, partner max 0.3 µM, 7x7
[45] = first compound max 0.3 µM, partner max 10 µM, 7x7

CN(CCO)CC[C@H](CSc1ccccc1)Nc1ccc(S(=O)(=O)NC(=O)c2ccc(N3CCC([C@@H](O)c4ccccc4-c4ccc(Cl)cc4)CC3)cc2)cc1S(=O)(=O)C(F)(F)F [AZD4320] + CS(=O)(=O)CCNCc1ccc(-c2ccc3ncnc(Nc4ccc(OCc5cccc(F)c5)c(Cl)c4)c3c2)o1 [Lapatinib] (first compound max 1 µM, 7x7, partner max 10 µM)
Bliss excess [1]: 0.0068
Bliss excess [2]: -0.0638
Bliss excess [3]: -0.0253
Bliss excess [4]: 0.0806
Bliss excess [5]: -0.0047
Bliss excess [6]: 0.0352
Bliss excess [7]: 0.0596
Bliss excess [8]: 0.0382
Bliss excess [9]: -0.021
Bliss excess [10]: 0.0943
Bliss excess [11]: -0.0109
Bliss excess [12]: 0.0523
Bliss excess [13]: 0.0767
Bliss excess [14]: 0.012
Bliss excess [15]: 0.0003
Bliss excess [16]: 0.0035
Bliss excess [17]: -0.0519
Bliss excess [18]: 0.0318
combination Emax [19]: 0.839
combination Emax [20]: 0.261
combination Emax [21]: 0.958
combination Emax [22]: 0.398
combination Emax [23]: 0.995
combination Emax [24]: 0.985
combination Emax [25]: 0.571
combination Emax [26]: 0.72
combination Emax [27]: 0.917
combination Emax [28]: 0.947
combination Emax [29]: 1
combination Emax [30]: 0.363
combination Emax [31]: 0.434
combination Emax [32]: 0.564
combination Emax [33]: 0.282
combination Emax [34]: 1

CCN(CCO)CCCOc1ccc2c(Nc3cc(CC(=O)Nc4cccc(F)c4)[nH]n3)ncnc2c1 [AZD2811] + O=C(c1cc(Cc2n[nH]c(=O)c3ccccc23)ccc1F)N1CCN(C(=O)C2CC2)CC1 [Olaparib]
Bliss excess [35, 37]: 0.0384
combination Emax [36, 37]: 0.479

CN(C)CCCOc1ccc(-c2ccc3ncc4c(c3c2)n(C2CCOCC2)c(=O)n4C)cn1 [AZD0156] + O=C(c1cc(Cc2n[nH]c(=O)c3ccccc23)ccc1F)N1CCN(C(=O)C2CC2)CC1 [Olaparib]
Bliss excess [35, 38]: 0.0153
combination Emax [36, 38]: 0.378

NC1(C(=O)N[C@@H](CCO)c2ccc(Cl)cc2)CCN(c2ncnc3[nH]ccc23)CC1 [Capivasertib] + COc1nnc2ccc(N3CCC(c4ccc(OCCN5CCN(C)C(=O)[C@H]5C)cc4)CC3)nn12 [AZD5153]
Bliss excess [35, 39]: -0.0646
combination Emax [36, 39]: 0.768

CN(CCO)CC[C@H](CSc1ccccc1)Nc1ccc(S(=O)(=O)NC(=O)c2ccc(N3CCC([C@@H](O)c4ccccc4-c4ccc(Cl)cc4)CC3)cc2)cc1S(=O)(=O)C(F)(F)F [AZD4320] + CC(=O)O[C@H]1C(=O)[C@@]2(C)[C@H]([C@H](OC(=O)c3ccccc3)[C@]3(O)C[C@H](OC(=O)[C@H](O)[C@@H](NC(=O)c4ccccc4)c4ccccc4)C(C)=C1C3(C)C)[C@]1(OC(C)=O)CO[C@@H]1C[C@@H]2O [Paclitaxel]
Bliss excess [35, 40]: -0.0109
combination Emax ([36]; first compound max 1 µM, partner max 3 µM, 7x7, may be a limit of the assay): 1

CC1(C)CCC(CN2CCN(c3ccc(C(=O)NS(=O)(=O)c4ccc(NCC5CCOCC5)c([N+](=O)[O-])c4)c(Oc4cnc5[nH]ccc5c4)c3)CC2)=C(c2ccc(Cl)cc2)C1 [Venetoclax] + C=CCn1c(=O)c2cnc(Nc3ccc(N4CCN(C)CC4)cc3)nc2n1-c1cccc(C(C)(C)O)n1 [AZD1775]
Bliss excess [35, 41]: 0.109
combination Emax [36, 41]: 0.978

Cc1cc2ncnn2cc1Nc1ncc2c(n1)n(C1CCOCC1)c(=O)n2C [AZD7648] + CCN(CCO)CCCOc1ccc2c(Nc3cc(CC(=O)Nc4cccc(F)c4)[nH]n3)ncnc2c1 [AZD2811]
Bliss excess [35, 39]: 0.0631
combination Emax [36, 39]: 0.444

CC1(C)CCC(CN2CCN(c3ccc(C(=O)NS(=O)(=O)c4ccc(NCC5CCOCC5)c([N+](=O)[O-])c4)c(Oc4cnc5[nH]ccc5c4)c3)CC2)=C(c2ccc(Cl)cc2)C1 [Venetoclax] + C1CN(CCC1(C(=O)N[C@@H](CCO)C2=CC=C(C=C2)Cl)N)C3=NC=NC4=C3C=CN4 [Capivasertib]
Bliss excess [35, 40]: -0.0112
combination Emax [36, 40]: 0.756

C[C@@H](c1ccc2nccn2c1)n1nnc2ncc(-c3cnn(C)c3)nc21 [Savolitinib] + Cc1c2c(nn1C)CSCc1cc(n(C)n1)CSc1cc(c3ccccc3c1)OCCCc1c(C(=O)O)n(C)c3c-2c(Cl)ccc13 [AZD5991]
Bliss excess [35, 42]: -0.0477
combination Emax [36, 42]: 0.978

C[C@@H](Oc1cc(-c2cnn(C3CCNCC3)c2)cnc1N)c1c(Cl)ccc(F)c1Cl [Crizotinib] + Cn1cnc2c(F)c(Nc3ccc(Br)cc3Cl)c(C(=O)NOCCO)cc21 [Selumetinib]
Bliss excess [35, 43]: -0.0663
combination Emax [36, 43]: 0.752

C=CCn1c(=O)c2cnc(Nc3ccc(N4CCN(C)CC4)cc3)nc2n1-c1cccc(C(C)(C)O)n1 [AZD1775] + CCc1c2c(nc3ccc(O)cc13)-c1cc3c(c(=O)n1C2)COC(=O)[C@]3(O)CC [SN-38]
Bliss excess ([35]; first compound max 1 µM, partner max 0.3 µM): 0.0364
combination Emax ([36]; first compound max 1 µM, partner max 0.3 µM, may be a limit of the assay): 1

NC1(C(=O)N[C@@H](CCO)c2ccc(Cl)cc2)CCN(c2ncnc3[nH]ccc23)CC1 [Capivasertib] + CC(C)n1c(=O)n(C)c2cnc3cc(F)c(-c4ccc(OCCCN5CCCCC5)nc4)cc3c21 [AZD1390]
Bliss excess [35, 44]: 0.0024
combination Emax [36, 44]: 0.507

CCc1c2c(nc3ccc(O)cc13)-c1cc3c(c(=O)n1C2)COC(=O)[C@]3(O)CC [SN-38] + O=C(c1cc(Cc2n[nH]c(=O)c3ccccc23)ccc1F)N1CCN(C(=O)C2CC2)CC1 [Olaparib]
Bliss excess [35, 45]: 0.0095
combination Emax [36, 45]: 0.813
